Test results published in US10799479B2, “Self-emulsifying formulations of DIM-related indoles” (BioResponse, L.L.C., priority 2015, dated 2020).
Values belong to the compound of their own block, whether it stands above or below them.

Columns and labels:
[1] = source not stated; cited from earlier work
[2] = Single dose human oral bioavailability study; assay type: in vivo; settings: single oral dose 300 mg DIM, healthy individuals, mean
Procedure: In Part I of the Study, a treatment group was administered a 300 mg dose of DIM from BR-DIM or a 300 mg dose of DIM from crystalline DIM on the first study day, followed by crossover to the other DIM formulation on the second study day, at least 14 days following the first treatment. 3 subjects were given crystalline DIM, 4 subjects were given BR-DIM.
In Part II of the Study, five individuals, four of whom participated in Part I of the Study, were administered a 300 mg dose of DIM from DIM SMEDDS Formulation D. Testing of DIM SMEDDS formula D took place on one day with 5 subjects. The subjects were all healthy, adult volunteers, both male and female, not consuming DIM containing supplements and in a fasting state on study days. […]
The concentrations of DIM in human plasma samples were determined by a validated high-performance liquid chromatography with tandem mass spectrometry (LC-MS/MS) method. […] The analytes were monitored by a Waters Micromass triple quadrupole mass spectrometer (Milford, Mass., USA) using an electrospray probe in the positive ionization mode operating at a cone voltage of 23V for DIM and 13V for the internal standard zileuton. […] The transitions at 129.9>76.8 and 237.1>161.1 were monitored for DIM and zileuton, respectively. […] The lower limit of quantitation (LLOQ) was determined at 10 ng/mL for DIM in human plasma. […]

[3] = Dispersion test in USP dissolution bath (DLS Nicomp, polarized light microscopy); assay type: physicochemical
Procedure: A dispersion test was performed on the miscible formulations in a USP dissolution bath. 830 μL of miscible mixture was introduced in 250 mL of purified water at 37° C. under agitation with a paddle at 100 rpm. Performance criteria were: ease of emulsification, homogeneity and fineness of the dispersion. The fineness of the dispersion was assayed by dynamic light scattering (DLS, Particle Sizing Systems Nicomp). Photomicrographs were obtained of crystals observed during light microscopic observation following 30 minutes of dispersion.
The dispersion of the formulation in 250 mL of water (equivalent to the FDA glass of water) was followed for observance of the precipitation of DIM after 30 minutes and was checked by polarized light microscopy. Study of Formulation “D” lead to the formation of a fine and turbid emulsion with a crystal formation showing particle size distribution of 283±66 nm (volume). […] The advantageous reduction in crystal size for Formulation N compared to Formulation D is attributed, at least in part, to a contribution from Peppermint Oil and low concentration of Polysorbate 80 (see FIG. 4, A, B, and C).

[4] = DIM solubility in excipients (incremental addition, microscopic observation); assay type: physicochemical; settings: olive oil or sunflower oil
Procedure: The first step in this development process was the testing of a variety of excipients chosen as potentially active in solubilizing DIM. […] The method involved weighing of approximately 2 grams of each of the liquid excipients into a small vial. Subsequently, a small amount of DIM was added and the mixture was shaken.
The method involved weighing of approximately 2 grams of each of the liquid excipients into a small vial. Subsequently, a small amount of DIM was added and the mixture was shaken. […] Continued testing of acceptable oil solvents for, e.g., nutritional supplement, self-emulsifying formulations using DIM as a representative DIM-related indole active ingredient included testing of the following oils: […]

[5] = Shake-flask determination of maximum solubility of DIM; assay type: physicochemical; settings: HPLC
Procedure: The solubility was determined as described by Lindenberg et al., 2004, Eur J Pharm Biopharm. 58(2):265-78. […] The vials were incubated at 37±0.5° C. while shaking on a “Polymax 1040” orbital shaker (Heidolph, Schwabach). The samples of the solutions were taken after 4 or 24 hours by pressing the Uniprep® plunger down, diluted as appropriate, and the concentration of DIM was analyzed by HPLC, as described below. The measurements were done in triplicate. The maximum concentration of DIM in aqueous media used in this study was 0.6 μg/ml. […]

Compound: Vitamin D
Log P of 2nd API drug [1]: 7.5

Cmax [2]: 18.1 ng/mL
Particle Size Diameter after Dispersion in Water (nm) ([3]; Malvern Mastersizer, DIM as supplied by BioResponse): 3,010^1 nm
DIM Crystal Characteristics In Water Dispersion ([3]; polarized light microscopy after 30 minutes): Large
Compound: c1ccc2c(Cc3c[nH]c4ccccc34)c[nH]c2c1 [Crystalline DIM, 3,3′-diindolylmethane]

Compound: CC(C)=CCC/C(C)=C/CC/C(C)=C/CC/C(C)=C/CC1=C(C)C(=O)c2ccccc2C1=O [menaquinone-4]
Log P of 2nd API drug [1]: 10-12

ability to dissolve DIM [4]: very low
concentration of DIM in Octanol [5]: 2,300 μg/ml
Compound: c1ccc2c(Cc3c[nH]c4ccccc34)c[nH]c2c1 [DIM, 3,3′-diindolylmethane]
